We go through 23 compounds from patent publication US10654816B2, “Compounds and compositions for treating conditions associated with NLRP activity” (NOVARTIS INFLAMMASOME RESEARCH, INC., priority 2017, dated 2020).

Where only a bound is given, the exact number is not on record here.

As a reminder, the IC50 is the concentration needed to halve the response being measured.

The test system of one experiment is IL-1β production in PMA-differentiated THP-1 cells. Nature of the experiment: IL-1β production in PMA-differentiated THP-1 cells stimulated with gramicidin (hTHP-1 assay, HTRF readout; Procedures 1-3). To be noted: Homo sapiens, THP-1, hTHP-1 assay containing 2% fetal bovine serum; average; class symbols; read-out: hTHP-1 IC50 (Average IC50 of compounds in hTHP-1 assay). In kind it is cell-based, human. As for the experimental part:
The Following Protocol is Suitable for Testing the Activity of the Compounds Disclosed Herein. Procedure 1: IL-1B Production in PMA-Differentiated THP-1 Cells Stimulated with Gramicidin.
THP-1 cells were purchased from the American Type Culture Collection and sub-cultured according to instructions from the supplier. Cells were cultured in complete RPMI 1640 (containing 10% heat inactivated FBS, penicillin (100 units/ml) and streptomycin (100 μg/ml)), and maintained in log phase prior to experimental setup. Prior to the experiment, compounds were dissolved in dimethyl sulfoxide (DMSO) to generate a 30 mM stock. The compound stock was first pre-diluted in DMSO to 3, 0.34, 0.042 and 0.0083 mM intermediate concentrations and subsequently spotted using Echo550 liquid handler into an empty 384-well assay plate to achieve desired final concentration (e.g. 100, 33, 11, 3.7, 1.2, 0.41, 0.14, 0.046, 0.015, 0.0051, 0.0017 μM). DMSO was backfilled in the plate to achieve a final DMSO assay concentration of 0.37%. The plate was then sealed and stored at room temperature until required.
THP-1 cells were treated with PMA (Phorbol 12-myristate 13-acetate) (20 ng/ml) for 16-18 hours. On the day of the experiment the media was removed and adherent cells were detached with trypsin for 5 minutes. Cells were then harvested, washed with complete RPMI 1640, spun down, and resuspended in RPMI 1640 (containing 2% heat inactivated FBS, penicillin (100 units/ml) and streptomycin (100 μg/ml). The cells were plated in the 384-well assay plate containing the spotted compounds at a density of 50,000 cells/well (final assay volume 50 μl). Cells were incubated with compounds for 1 hour and then stimulated with gramicidin (5 μM) (Enzo) for 2 hours. Plates were then centrifuged at 340 g for 5 min. Cell free supernatant (40 μL) was collected using a 96-channel PlateMaster (Gilson) and the production of IL-1β was evaluated by HTRF (cisbio). The plates were incubated for 18 h at 4° C. and read using the preset HTRF program (donor emission at 620 nm, acceptor emission at 668 nm) of the SpectraMax i3x spectrophotometer (Molecular Devices, software SoftMax 6). A vehicle only control and a dose titration of CRID3 (100-0.0017 μM) were run concurrently with each experiment.
Procedure 2: IL-1β Production in PMA-Differentiated THP-1 Cells Stimulated with Gramicidin.
THP-1 cells were purchased from the American Type Culture Collection and sub-cultured according to instructions from the supplier. Prior to experiments, cells were cultured in complete RPMI 1640 (containing 10% heat inactivated FBS, penicillin (100 units/ml) and streptomycin (100 μg/ml)), and maintained in log phase prior to experimental setup. Prior to the experiment THP-1 were treated with PMA (Phorbol 12-myristate 13-acetate) (20 ng/ml) for 16-18 hours. Compounds were dissolved in dimethyl sulfoxide (DMSO) to generate a 30 mM stock.
On the day of the experiment the media was removed and adherent cells were detached with trypsin for 5 minutes. Cells were then harvested, washed with complete RPMI 1640, spun down, resuspended in RPMI 1640 (containing 2% heat inactivated FBS, penicillin (100 units/ml) and streptomycin (100 μg/ml). The cells were plated in a 384-well plate at a density of 50,000 cells/well (final assay volume 50 μl). Compounds were first dissolved in assay medium to obtain a 5× top concentration of 500 μM. 10 step dilutions (1:3) were then undertaken in assay medium containing 1.67% DMSO. 5× compound solutions were added to the culture medium to achieve desired final concentration (e.g. 100, 33, 11, 3.7, 1.2, 0.41, 0.14, 0.046, 0.015, 0.0051, 0.0017 μM). Final DMSO concentration was at 0.37%. Cells were incubated with compounds for 1 hour and then stimulated with gramicidin (5 μM) (Enzo) for 2 hours. Plates were then centrifuged at 340 g for 5 min. Cell free supernatant (40 μL) was collected using a 96-channel PlateMaster (Gilson) and the production of IL-1β was evaluated by HTRF (cisbio). […]
In general terms: In TR-FRET formats the signal depends on donor and acceptor labels being close together.
For the compound `CC(C)(O)c1cccc(S(N)(=O)=NC(=O)Nc2c3c(c(F)c4c2CCC4)CCC3)c1` (centres unmarked) [Example 34, N′-(8-fluoro-1,2,3,5,6,7-hexahydro-s-indacen-4-ylcarbamoyl)-3-(2-hydroxypropan-2-yl)benzenesulfonimidamide], the half-inhibitory concentration (IC50) was 1 to 5 µM.
Still for that read-out and setting: to `CC(C)(O)c1coc(S(N)(=O)=NC(=O)Nc2c3c(cc4c2CCC4)CCC3)c1` (centres unmarked) [Example 76, N′-(1,2,3,5,6,7-hexahydro-s-indacen-4-ylcarbamoyl)-4-(2-hydroxypropan-2-yl)furan-2-sulfonimidamide] belongs […].
Same read-out and setting: to `Cc1cc(C(C)(C)O)ccc1S(N)(=O)=NC(=O)Nc1c2c(cc3c1CCC3)CCC2` (centres unmarked) [Example 19, N′-(1,2,3,5,6,7-hexahydro-s-indacen-4-ylcarbamoyl)-4-(2-hydroxypropan-2-yl)-2-methylbenzenesulfonimidamide] belongs 1 to 5 µM; to `CC(C)(O)c1ccc(F)c(S(N)(=O)=NC(=O)Nc2c3c(c(F)c4c2CCC4)CCC3)c1` (single isomer, unassigned) [Example 168, (S)- or (R)-2-fluoro-N′-((8-fluoro-1,2,3,5,6,7-hexahydro-s-indacen-4-yl)carbamoyl)-5-(2-hydroxypropan-2-yl)benzenesulfonimidamide], 0.2 to 1 µM; to `CN(C)Cc1cccc(S(N)(=O)=NC(=O)Nc2c3c(cc4c2CCC4)CCC3)c1` (centres unmarked) [Example 51, 3-((dimethylamino)methyl)-N′-(1,2,3,5,6,7-hexahydro-s-indacen-4-ylcarbamoyl)benzene-sulfonimidamide], 1 to 5 µM.
Regarding `CC(C)(O)c1ccc(S(N)(=O)=NC(=O)Nc2c3c(c(F)c4c2CCC4)CCC3)c(F)c1` (centres unmarked) [Example 47, 2-fluoro-N′-(8-fluoro-1,2,3,5,6,7-hexahydro-s-indacen-4-ylcarbamoyl)-4-(2-hydroxypropan-2-yl)benzenesulfonimidamide], the IC50 lay in the range of 0.2 to 1 µM.
Same read-out and setting: to `CN1CCc2ccc(S(=N)(=O)NC(=O)Nc3c4c(cc5c3CCC5)CCC4)cc2C1` (centres unmarked) [Example 271, N-(1,2,3,5,6,7-hexahydro-s-indacen-4-ylcarbamoyl)-2-methyl-1,2,3,4-tetrahydroisoquinoline-7-sulfonimidamide] belongs 1 to 5 µM.
The same measure, in the same setting: the figure for `NS(=O)(=NC(=O)Nc1c2c(cc3c1CCC3)CCC2)c1ccc(CN2CCCC2)cc1` (centres unmarked) [Example 236, N′-(1,2,3,5,6,7-hexahydro-s-indacen-4-ylcarbamoyl)-4-(pyrrolidin-1-ylmethyl)benzenesulfonimidamide] is 1 to 5 µM; for `Cc1ccc(-c2c3c(c(NC(=O)N=S(N)(=O)c4ncc(C(C)(C)O)s4)c4c2CCC4)CCC3)cc1C` (centres unmarked) [Example 427, 1-{Amino[5-(2-hydroxypropan-2-yl)-1,3-thiazol-2-yl]oxo-λ^6-sulfanylidene}-3-[8-(3,4-dimethylphenyl)-1,2,3,5,6,7-hexahydro-s-indacen-4-yl]urea] it is 5 to 30 µM.
In the case of `CN1CCc2cc(S(N)(=O)=NC(=O)Nc3c4c(cc5c3CCC5)CCC4)ccc2C1` (single isomer, unassigned) [Example 395, (R) or (S)-N′-((1,2,3,5,6,7-hexahydro-s-indacen-4-yl)carbamoyl)-2-methyl-1,2,3,4-tetrahydroisoquinoline-6-sulfonimidamide], the IC50 was 1 to 5 µM.
As to `COC(=O)CCC(=O)N(C)Cc1ccc(S(N)(=O)=NC(=O)Nc2c3c(cc4c2CCC4)CCC3)cc1` (centres unmarked) [Example 251], the IC50 was in the range of 1 to 5 µM.
For `CCc1ccc2cn[nH]c2c1NC(=O)N=S(N)(=O)c1cnc(C(C)(C)O)s1` (single isomer, unassigned) [Example 326, (R) or (S)-N′-((6-ethyl-1H-indazol-7-yl)carbamoyl)-2-(2-hydroxypropan-2-yl)thiazole-5-sulfonimidamide], the 50% inhibitory concentration (IC50) lay within 5 to 30 µM.
`CC(C)c1cc(F)cc(C(C)C)c1NC(=O)N=S(N)(=O)c1cnc2ccccc2c1` (centres unmarked) [Example 218, N′-((4-fluoro-2,6-diisopropyl-phenyl)carbamoyl)quinoline-3-sulfonimidamide]: the IC50 lay in the range of 1 to 5 µM.
Take `Cn1ncc2cc(S(N)(=O)=NC(=O)Nc3c4c(cc5c3CCC5)CCC4)ccc21` (centres unmarked) [Example 273, N′-(1,2,3,5,6,7-hexahydro-s-indacen-4-ylcarbamoyl)-1-methyl-1H-indazole-5-sulfonimidamide]: the IC50 was in the range of 5 to 30 µM.
Same read-out and setting: to `C#CCCC(=O)N(C)Cc1ccc(S(N)(=O)=NC(=O)Nc2c3c(cc4c2CCC4)CCC3)cc1` (centres unmarked) [Example 261, N-(4-(N′-((1,2,3,5,6,7-hexahydro-s-indacen-4-yl)carbamoyl)sulfamidimidoyl)benzyl)-N-methylpent-4-ynamide] belongs 1 to 5 µM; to `CC(C)(O)c1ncc(S(N)(=O)=NC(=O)Nc2c3c(cc4c2CCC4)CCC3)s1` (centres unmarked) [Example 4, N′-(1,2,3,5,6,7-hexahydro-s-indacen-4-ylcarbamoyl)-2-(2-hydroxvpropan-2-yl)thiazole-5-sulfonimidamide], […]; to `CC(C)c1cc(F)cc(C(C)C)c1NC(=O)N=S(N)(=O)c1ccc(CN(C)C)cc1` (centres unmarked) [Example 36, 4-((dimethylamino)methyl)-N′-(4-fluoro-2,6-diisopropylphenylcarbamoyl)-benzenesulfoniniidamide], 1 to 5 µM.

Staying with this experiment, now noted: Homo sapiens, THP-1, hTHP-1 assay containing 2% fetal bovine serum; average; given as bound; read-out: hTHP-1 IC50 (Average IC50 of compounds in hTHP-1 assay).
Regarding `CC(C)c1cc(F)cc(C(C)C)c1NC(=O)N=S(N)(=O)c1ccc(S(C)(=O)=O)cc1` (single isomer, unassigned) [Example 144, (S)- or (R)-N′-(4-fluoro-2,6-diisopropylphenylcarbamoyl)-4-(methylsulfonyl)-benzenesulfonimidamide], the IC50 is > 30 µM.
For `NCc1ccc(S(N)(=O)=NC(=O)Nc2c3c(cc4c2CCC4)CCC3)cc1` (single isomer, unassigned) [Example 412, (S) or (R)-4-(aminomethyl)-N′-((1,2,3,5,6,7-hexahydro-s-indacen-4-yl)carbamoyl)benzene-sulfonimidamide], the half-maximal inhibitory concentration (IC50) is > 30 µM.
In the case of `CC(C)c1cc(F)cc(C(C)C)c1NC(=O)N=S(N)(=O)c1ccc2ccccc2c1` (centres unmarked) [Example 210, N′-((4-fluoro-2,6-diisopropylphenyl)carbamoyl)naphthalene-2-sulfonimidamide], the IC50 is > 30 µM.
The same measure, in the same setting: the figure for `CNS(=O)(=NC(=O)Nc1c2c(cc3c1CCC3)CCC2)c1ccc(CN(C)C)cc1` (single isomer, unassigned) [Example 383, (R) or (S)-4-((dimethylamino)methyl)-N′-((1,2,3,5,6,7-hexahydro-s-indacen-4-yl)carbamoyl)-N-methylbenzene-sulfonimidamide] is > 30 µM.
As for `CC(C)c1cc(F)cc(C(C)C)c1NC(=O)N=S(N)(=O)c1cnc2n1CCC2` (centres unmarked) [Example 219, N′-((4-fluoro-2,6-diisopropylphenyl)carbamoyl)-6,7-dihydro-5H-pyrrolo[1,2-a]imidazole-3-sulfonimidamide], the IC50 is > 30 µM.

Staying with this experiment, now noted: hTHP-1 assay containing 2% fetal bovine serum; average; class symbols; read-out: hTHP-1 IC50 (Average IC50 of compounds in hTHP-1 assay).
As for `CC(C)(O)c1ncc(S(N)(=O)=NC(=O)Nc2c3c(cc4c2CCC4O)CCC3)s1` (single isomer, unassigned) [Example 338, (R, S) or (R, R)-N′-((1-hydroxy-1,2,3,5,6,7-hexahydro-s-indacen-4-yl)carbamoyl)-2-(2-hydroxypropan-2-yl)thiazole-5-sulfonimidamide], the IC50 fell in the range of 1 to 5 µM.
